We go through four molecules from publication PMC7915902, “Preclinical Evaluation of [^18F]FACH in Healthy Mice and Piglets: An ^18F-Labeled Ligand for Imaging of Monocarboxylate Transporters with PET” (International Journal of Molecular Sciences, 2021).

Where two headings read alike, the source gives them in different places.

The subject of series [1] is MCTs. Put plainly: Autoradiographic competition study in mouse kidney cryosections. It is filed as binding. Particulars: 300 nM competitor, 1 nM [18F]FACH. As to the method: Cryosections from the mouse kidney (10 µm) were cut on a microtome (Microm HM560, Thermo Scientific Microm, Fisher Scientific GmbH, Schwerte, Germany), mounted on glass slides (SuperFrost, Thermo Scientific Menzel, Fisher Scientific GmbH), dried for two hours at room temperature, and stored at −25 °C. Before the binding experiment, the tissue slices were dried under a stream of cold air, pre-incubated with PBS (pH 7.4) for 15 min at room temperature and dried again before incubation with PBS containing [^18F]FACH (1.2 nM) without (total binding) and with different concentrations of FACH-Na (10 µM–0.1 nM; homologous competition) for 60 min. Specific binding to MCTs of [^18F]FACH in cryosections of mouse kidney was determined after co-incubation of 1 nM [^18F]FACH with vehicle or 300 nM α-CCa-Na or 300 nM reference compound (homologous competition).
The incubation was terminated by washing with ice-cold buffer (50 mM TRIS-HCl, pH 7.4) twice for two minutes followed by dipping in ice-cold demineralized water for 5 s and drying under a stream of cold air. […] KD and Bmax values were calculated by the simplified Cheng and Prusoff equation (http://www3.uah.es/farmamol/Public/GraphPad/radiolig.htm, accessed on 5 February 2021):(1) KD=Ki=IC50−Radioligand (M) (2) Bmax=Top−Bottom/Radioligand (M)/(KD+Radioligand (M))

Series [2] deals with MCTs. As to the kind of experiment: Dynamic PET/MRI in mice with pre-treatment. It is filed as in vivo, mouse. Particulars: for AUC0–60 min gall bladder / AUC0–60 min kidney cortex / AUC0–60 min liver / AUC0–60 min small intestine / AUC0–60 min whole blood: mouse, in vivo. As to the method:
(§1) The biodistribution of [^18F]FACH in mice was assessed by small animal PET (Nanoscan, Mediso, Budapest, Hungary) with dynamic 60 min emission recordings, followed by T1 weighted GRE MR (TR = 15.0 ms, TE = 2.4 ms, FA = 25°) imaging for anatomical correlations and attenuation correction. The mice (n = 20) weighing 32.2 ± 2.9 g were anaesthetised with 2% isoflurane in 60% oxygen, and placed on a thermostatically heated animal bed. The animals then received i.v. injections of 0.9% saline (control), reference compound (10 mg/kg), or α-CCA-Na (25 mg/kg) ten min prior or 20 min after (displacement studies) [^18F]FACH administration (2.3–8.6 MBq, 0.5–11.2 nmol/kg). List mode PET data were binned as a series of attenuation-corrected sinogram frames (12 × 10 s, 6 × 30 s, 5 × 60 s and 10 × 300 s) and were reconstructed by Ordered Subset Expectation Maximization (OSEM3D) with four iterations, six subsets and a voxel size of 0.4 mm³ (Nucline v2.01, Mediso).
(§2) The analysis of reconstructed datasets was performed with PMOD software (v4.103, PMOD Technologies LLC, Zurich, Switzerland).
(§3) Data are shown in mean ± standard deviation (SD). Group differences were tested by Student’s t-test, with p < 0.05 designated as significant. Area Under the Curves (AUCs) and corresponding 95% confidence intervals (CI95%s) were calculated with GraphPad Prism (v.8.2) following the assumptions described by Gagnon et al..

Series [3] is described as follows: Extended single dose toxicity study in rats. It is filed as in vivo, rat. As to the method:
The extended single dose toxicity studies of FACH in male (n = 15) and female (n = 15) outbred Wistar rats were performed in the Biological Testing Laboratory (BTL) in Russia (Study Number 680/19). The test item FACH-Na was administered by single bolus i.v. injection at doses of 6.2, 62 and 620 μg/kg body weight (bw). Mortality, clinical pathology parameters (hematology and serum chemistry), organ weights and microscopic tissue parameters were investigated 24 h and two weeks after treatment.

Series [4] concerns MCTs. As to the kind of experiment: PET displacement study in mice. It is filed as in vivo, mouse. As to the method:
as §1, §2

The subject of series [5] is MCTs. The format is in vivo, piglet. As to the method: The piglets (n = 6) were inititally anaesthetised with intramuscular injections of stresnil and ursotamin, and anaesthesia was maintained with intravenous ursotamin and midazolam, as required. The hematocrit was measured in an ear vein blood sample collected just prior to imaging. Either saline (n = 3) or 25 mg/kg α-CCA-Na (n = 3) in saline was administrated ten min before i.v. administration of [^18F]FACH (261–327 MBq, corresponding to 218–852 pmol/kg) via an ear vein. Imaging was performed with a simultaneous hybrid PET/MR system (mMR Biograph; Siemens, Erlangen, Germany) equipped with dedicated phased-array surface. PET data were reconstructed into a 128 × 128 matrix (voxel size: 1.40 × 1.40 × 2.03 mm^3) using the built-in OSEM3D algorithm with eight iterations, 21 subsets, and a 3-mm Gaussian filter. The attenuation and decay corrected dynamic sequence consisted of 32 frames as follows: 1 × 15, 11 × 30, 1 × 45, 5 × 60, 1 × 90, 5 × 120, 1 × 180, 4 × 240, 1 × 300, 2 × 360 s, whereas activity concentrations in VOIs are represented in units of SUV or percentage of injected dose (%/ID). After completing the dynamic PET recording, piglets were euthanized with an i.v. overdose of T61 (Intervet Deutschland GmbH, Unterschleißheim, Germany) and tissues were sampled for radio-metabolism studies in selected animals.
as §2, §3

Series [6] concerns MCTs. As to the kind of experiment: Compartmental kinetic modelling of PET data in mice. It is filed as in vivo, mouse. The conditions noted are these: kidney cortex, 2-TCM, [18F]FACH after α-CCA-Na pre-treatment. The method, then: (§4) Table 4 includes the results of 1-tissue-compartment kinetic modelling (1-TCM) of [^18F]FACH in the kidney cortex and the liver of the control and pre-treated mouse groups (α-CCA-Na and reference compound). […] The BPND was estimated as the ratio of [VT(control)/VT(pre-treatment)] − 1.
(§5) Kinetic analysis of reconstructed datasets was performed with PMOD software. First, image derived arterial input functions (IDIFs) were obtained from the left ventricle in mice and from an artery close to the kidney in piglet studies. IDIFs were corrected for partial volume effects, plasma fraction from hematocrit values (individually determined for each piglet directly before PET imaging; for mice set to 0.51 according to CD-1 Mouse Hematology sheet from Charles River Laboratories, 2011) and radio-metabolites (measured for piglets, and set to zero for mice). Tri-exponential metabolite-corrected fitted input functions were used for one and two tissue compartment modelling (1-TCM/2-TCM) of time activity curves (TACs) in tissue volumes of interest (VOIs). For both species the specific blood volume was set to 0.15 mL g^−1 in the kidney cortex and 0.128 mL g^−1 in the liver, according to published values.

Series [7] has as its system MCTs. Put plainly: Compartmental kinetic modelling of PET data in piglets. The format is in vivo, piglet. Particulars: living piglets, α-CCA-Na dose. As to the method:
as §4, §5

The conditions of series [8]: in vivo.
Description: (§6) Radio-metabolites were analyzed by analytical and semi-preparative HPLC on a JASCO LC-2000 system (JASCO Labor- und Datentechnik, Gross-Umstadt, Germany), consisting of a PU-2080 Plus pump, AS-2055 Plus auto injector (100 μL sample loop) or a manual injection valve with a 5 mL sample loop, and a UV-2070 Plus detector coupled with a gamma radioactivity HPLC detector (Gabi Star, Raytest Isotopenmessgeräte GmbH, Straubenhardt, Germany). Data analysis was performed with the Galaxie chromatography software (Agilent Technologies, Santa Clara, CA, USA). […] For analytical and semi-preparative radio-HPLC analyses, Reprosil-Pur columns (C18-AQ 250 × 4.6 mm; 5 μm; and C18-AQ 150 × 4.6 mm; 10 μm; Dr. Maisch HPLC GmbH; Ammerbuch-Entringen, Germany) were used. Acetonitrile (ACN) mixed with a 20 mM aqueous solution of ammonium acetate (NH4OAc) was used as eluent.
(§7) In corresponding piglet studies (n = 5), plasma was separated from the arterial blood samples drawn during the PET recordings at certain time points.
(§8) In piglet studies, similar procedures were implemented for preparing samples from plasma collected at 15, 30, 45 and 60 min p.i., with the exception of collecting the urine sample only at 60 min p.i. Additionally, in order to measure the radio-metabolites in the piglet kidney, the tissue was resected at 60 min p.i. and after washing in PBS, samples of the kidney cortex and medulla were isolated and homogenized in demineralized water (2 mL/g tissue) using a borosilicate glass mortar with ten strokes of a PTFE plunger at 1000 rpm (Potter S, Homogenizer, B. Braun Biotech, Sartorius AG, Göttingen, Germany). Protein precipitation was performed by addition of ice-cold ACN/H2O at a ratio of 4:1 (v/v) of organic solvent to each tissue sample. The samples were vortexed for 3 min, placed on ice for 3 min, and the suspensions were centrifuged at 12,000 rpm at 4 °C for 5 min. For the second extraction, the precipitates were washed with 200 μL of the solvent mixture and subjected to the same procedure. The combined supernatants (total volume between 68 mL) were concentrated at 70 °C under argon flow to a final volume of approximately 2 mL and analyzed by semi-preparative RP radio-HPLC. […] The analyses were performed in gradient mode using 10% ACN/20 mM NH4OAc (aq.) as eluent A and 90% ACN/20 mM NH4OAc (aq.) as eluent B under the following conditions:
(§9) To determine the percentage of the radioactivity in the supernatants compared to the total radioactivity aliquots were taken at each step and, as well as the precipitates, quantified by gamma counting.
(§10) By interpolation of the measured radio-metabolite fractions from the piglet PET studies, the continuous TACs for [^18F]FACH and its radio-metabolites were calculated. Subsequently, the magnitudes of the whole body rate constant for [^18F]FACH metabolism (k0) and the elimination rate constant for the radio-metabolites (k−1) under control and pre-treated conditions were calculated as described previously [32]. Graphical analysis of the integrals of the plasma time-concentration series of PET tracers and their radio-metabolite(s) follow a linear relationship [32, 47], where the ordinate intercept is equal to the whole body fractional rate constant for the metabolism of the parent, designated k0 (min^−1). The linear regression slope corresponds to the fractional rate constant for the elimination of the radio-metabolite from circulation, designated k−1 (min^−1), which indicates the renal clearance of the radio-metabolite.
For series [9], the system named is MCT1. Set-up: method as in PMID 8779821. The conditions noted are these: cited from earlier work.
Series [10] in a line: Metabolism and renal excretion of [18F]FACH in piglets (radio-HPLC, graphical analysis). Particulars: piglet pre-treated with α-CCA-Na, 60 min p.i.
Description: as §6, §7, §8, §9, §10
Series [11] concerns MCT1. Further details: method as in PMID 31017677. The conditions noted are these: L-[14C]lactate uptake, rat brain endothelial cells; read-out: IC50 towards MCT1; cited from earlier work.
Series [12] concerns MCT4. Further details: method as in PMID 31017677. The conditions noted are these: L-[14C]lactate uptake, MDA-MB231 cells; read-out: IC50 towards MCT4; cited from earlier work.
The mark [13] stands for this setting: mice, reference compound 10 mg/kg pre-treatment.

Consider `CCCN(CCCF)c1ccc(/C=C(\C#N)C(=O)[O-])c(OC)c1.[Na+]` [FACH-Na], for which the “displacement of [18F]FACH” value in series [1] came out at 41%. In addition, in series [2] (setting [13]), the “reduction of [18F]FACH AUC0–60min in kidney cortex vs control” value came to 79% and the “reduction of [18F]FACH AUC0–60min in liver vs control” value stood at 44%. For the same molecule, in [2] (10 mg/kg), the “AUC0–60 min gall bladder” value was 1388 SUV min, the “AUC0–60 min kidney cortex” value was determined as 62 SUV min, the “AUC0–60 min liver” value came out at 250 SUV min and the “AUC0–60 min small intestine” value is 405 SUV min. Also, the “AUC0–60 min whole blood” value in [2] (10 mg/kg) came out at 125 SUV min. In [3] (Wistar rats, single bolus i.v.), the “no-observed-adverse-effect-level (NOAEL)” value is 620 µg FACH-Na/kg bodyweight. Moreover, in [3] (rats), the “NOAEL relative to the equivalent to the human dose (0.1 µg/kg)” value was “approximately 1000 fold”.
On to `N#CC(=Cc1ccc(O)cc1)C(=O)[O-].[Na+]` [α-CCA-Na, reference compound], for which the “displacement of [18F]FACH” value in [1] turned out to be 8%. Moreover, in [2] (25 mg/kg), the “AUC0–60 min gall bladder” value turned out to be 486 SUV min, the “AUC0–60 min kidney cortex” value stood at 153 SUV min, the “AUC0–60 min liver” value worked out at 417 SUV min and the “AUC0–60 min small intestine” value was found to be 180 SUV min. For the same molecule, the “AUC0–60 min whole blood” value in series [2] (25 mg/kg) is 63 SUV min. Also, in [4] (mice, 5 min after i.v. α-CCA-Na 25 mg/kg given 20 min after tracer), the “decrease of kidney cortex SUV” value worked out at 66%. In series [4] (mouse, in vivo), the “kidney cortex SUV” value is reported as 1.41 ± 0.36. Besides, in series [5] (in vivo, 25 mg/kg), the “AUC0–60 min gall bladder” value is listed as 4453 SUV min, the “AUC0–60 min kidney cortex” value turned out to be 178 SUV min, the “AUC0–60 min kidney medulla” value is 1264 SUV min and the “AUC0–60 min liver” value is 286 SUV min. For the same molecule, in series [5] (in vivo, 25 mg/kg), the “AUC0–60 min plasma” value was 40 SUV min and the “AUC0–60 min vertebrae” value came to 100 SUV min. Moreover, the “kidney uptake blocked by α-CCA-Na pre-treatment” value in series [5] (piglets) is listed as “about 60%”. Besides, in series [5] (piglets, α-CCA-Na 25 mg/kg pre-treatment), the “reduction of [18F]FACH AUC0–60min in kidney medulla” value is given as 50%. The “BPND = k3/k4 (2-TCM)” value in series [6] is 12.96±5.40 1/1. Moreover, the “specifically bound radiotracer displaced” value in series [7] is “around 50%”. For the same molecule, the “rate constant for elimination of radio-metabolites from plasma (k−1)” value in series [8] was found to be 0.020 ± 0.003 min⁻¹. Further, the “selectivity for MCT1 (MCT1/4) compared to the other subtypes” value in series [9] is recorded as 10 fold. In [10], the “parent fraction of [18F]FACH in kidney cortex” value is 17.0%.
For `N#CC(=Cc1ccc(O)cc1)C(=O)O` [α-CCA, α-cyano-4-hydroxycinnamic acid], the “selectivity for MCT1 (MCT1/4) compared to the other subtypes” value in series [9] is recorded as “ten-fold higher selectivity”.
In general, IC50 refers to the concentration that gives 50% inhibition. For the molecule `CCCN(CCCF)c1ccc(/C=C(\C#N)C(=O)O)c(OC)c1` [FACH], the IC50 in series [11] is 11 nM; in [12] it was 6.5 nM.
